Experimental findings from patent publication US20240185961A1, “DRUG MATERIAL INTERACTIONS USING QUARTZ CRYSTAL MICROBALANCE SENSORS” (Janssen Biotech, Inc., priority 2021, published 2024) are described below.

What all share (type): physicochemical
Data set [1] is described as follows: QCM-D adsorption, PS20 only runs, PVC and PES sensor surfaces pooled. The note with it: all at the same concentration, protein 3 experiments, 95% CI±19.77 ng/sq cm. As for the experimental part: (§1) The experiments detailed below were informed using quartz sensors coated with various surface compositions such as PVC, PE, PES, PVDF, PC, or PP. These sensors can be pre and post-run cleaned, for example, by way of a 30 min soak in 1% Deconex 11 Solution, a minimum 2 hr soak in DI water (usually overnight), followed by a rinse with DI water and 99% ethanol three times and then blown dry by medical grade nitrogen gas. The sensors were then inserted into a QCM unit as was sample solution, diluent (e.g., NS), and water. Runs were configured and data and procedures were collected. Experimental data was then transformed from frequency to mass data using, for example, the above equations. […]
(§2) In one experimental run, over 60 sensorgrams (i.e., the outputs of the QCM-D instruments) were analyzed and transformed from frequency to mass adsorption data in the aforementioned example. Here the mass adsorbed during the sample period was of primary interest, and the mass during this period was measured by subtracting the average mass recorded and calculated during the diluent period where an ionic liquid had effect on resonance (period 2 above/520 in FIG. 5) from the average mass shift recorded and calculated during the sample period (period 3 above/530 in FIG. 5). […]

Data set [2] is described as follows: QCM-D adsorption to PES sensor surface. The following applies: protein 3 formulation, PS20-poor solution, average, 95% CI±5.2%. As for the experimental part:
as §1, §2

Data set [3] can be described thus: QCM-D adsorption to PVC sensor surface. The following applies: protein 3 formulation, PS20-poor solution, average, 95% CI±33.7%. As to the method: as §1, §2

Take polysorbate 20 [PS20]: in data set [1], the “average mass contribution, PS20 only runs” value is listed as 40.20 ng/sq cm. The figures for the “PS20 contribution to mass of layer at the surface” value in data set [2] and in data set [3] were 12.22% and 35.56%, respectively.
